{
  "source": "patent US5157051A",
  "about": "“Composition and use of 3-thiocyano-2-halo-2-propenenitriles as antimicrobial agents” (The Dow Chemical Company, priority 1992, dated 1992)",
  "key": {"Klebsiella pneumoniae": {"system": "Klebsiella pneumoniae", "assay": "MIC, Klebsiella pneumoniae (Kp), nutrient agar", "format": "cell-based, Klebsiella pneumoniae ATCC 8308", "conditions": "30° C., 48 hours, read-out: Minimum Inhibitory Concentration, Kp", "procedure": "(§1) The minimum inhibitory concentration (MIC) for the compounds is determined for 9 bacteria, using nutrient agar, and 7 yeast and fungi, using malt yeast agar. A one percent solution of the test compound is prepared in a mixture of acetone and water. Nutrient agar is prepared at pH 6.8, representing a neutral medium, and at pH 8.2, representing an alkaline medium. The nutrient agars are prepared by adding 23 g of nutrient agar to one-liter of deionized water. In addition, the alkaline medium is prepared by adjusting a 0.04M solution of N-[tris-(hydroxymethyl)methyl]-glycine buffered deionized water with concentrated sodium hydroxide to a pH of […]. Malt yeast agar is prepared by adding 3 g yeast extract and 45 g malt agar per liter of dionized water. The specific agar is dispensed in 30 ml aliquots into 25×200 mm test tubes, capped and autoclaved for 15 minutes at 115° C. The test tubes containing the agar are cooled in a water bath until the temperature of the agar is 48 ° C. […]\n(§2) The inoculated petri plates are incubated at 30° C. for 48 hours and then read to determine if the test compound which is incorporated into the agar prevented growth of the respective bacteria. […]"}, "Aspergillus niger": {"system": "Aspergillus niger", "assay": "MIC, Aspergillus niger (An), malt yeast agar", "format": "cell-based, Aspergillus niger ATCC 16404", "conditions": "30° C., 72 hours (fungi), read-out: Minimum Inhibitory Concentration, An", "procedure": "as §1\n(§3) The inoculation with the yeast and fungi is accomplished as follows. […] The petri plates are incubated at 30° C. and read after 48 hours for yeast and 72 hours for fungi. […]"}, "Pseudomonas aeruginosa": {"system": "Pseudomonas aeruginosa", "assay": "MIC, Pseudomonas aeruginosa (Pa), nutrient agar", "format": "cell-based, Pseudomonas aeruginosa ATCC 10145", "conditions": "30° C., 48 hours, read-out: Minimum Inhibitory Concentration, Pa", "procedure": "as §1, §2"}, "Escherichia coli": {"system": "Escherichia coli", "assay": "MIC, Escherichia coli (Ec), nutrient agar", "format": "cell-based, Escherichia coli ATCC 11229", "conditions": "30° C., 48 hours, read-out: Minimum Inhibitory Concentration, Ec", "procedure": "as §1, §2"}, "Staphylococcus aureus": {"system": "Staphylococcus aureus", "assay": "MIC, Staphylococcus aureus (Sa), nutrient agar", "format": "cell-based, Staphylococcus aureus ATCC 6538", "conditions": "30° C., 48 hours, read-out: Minimum Inhibitory Concentration, Sa", "procedure": "as §1, §2"}, "[1]": {"system": "Pseudomonas aeruginosa (PRD-10)", "assay": "MIC, Pseudomonas aeruginosa (PRD-10), nutrient agar", "format": "cell-based, Pseudomonas aeruginosa ATCC 15442", "conditions": "30° C., 48 hours, read-out: Minimum Inhibitory Concentration, PRD", "procedure": "as §1, §2"}, "Saccharomyces cerevisiae": {"system": "Saccharomyces cerevisiae", "assay": "MIC, Saccharomyces cerevisiae (Sc), malt yeast agar", "format": "cell-based, Saccharomyces cerevisiae ATCC 4105", "conditions": "30° C., 48 hours (yeast), read-out: Minimum Inhibitory Concentration, Sc", "procedure": "as §1, §3"}, "Proteus vulgaris": {"system": "Proteus vulgaris", "assay": "MIC, Proteus vulgaris (Pv), nutrient agar", "format": "cell-based, Proteus vulgaris ATCC 881", "conditions": "30° C., 48 hours, read-out: Minimum Inhibitory Concentration, Pv", "procedure": "as §1, §2"}, "Trichoderma viride": {"system": "Trichoderma viride", "assay": "MIC, Trichoderma viride (Tv), malt yeast agar", "format": "cell-based, Trichoderma viride ATCC 8678", "conditions": "30° C., 72 hours (fungi), read-out: Minimum Inhibitory Concentration, Tv", "procedure": "as §1, §3"}, "Penicillium chrysogenum": {"system": "Penicillium chrysogenum", "assay": "MIC, Penicillium chrysogenum (Pc), malt yeast agar", "format": "cell-based, Penicillium chrysogenum ATCC 9480", "conditions": "30° C., 72 hours (fungi), read-out: Minimum Inhibitory Concentration, Pc", "procedure": "as §1, §3"}, "Aureobasidium pullulan": {"system": "Aureobasidium pullulan", "assay": "MIC, Aureobasidium pullulan (Ap), malt yeast agar", "format": "cell-based, Aureobasidium pullulan ATCC 16622", "conditions": "30° C., read after 48 hours for yeast and 72 hours for fungi, read-out: Minimum Inhibitory Concentration, Ap", "procedure": "as §1, §3"}, "Candida albicans": {"system": "Candida albicans", "assay": "MIC, Candida albicans (Ca), malt yeast agar", "format": "cell-based, Candida albicans ATCC 10231", "conditions": "30° C., 48 hours (yeast), read-out: Minimum Inhibitory Concentration, Ca", "procedure": "as §1, §3"}, "Bacillus subtilis": {"system": "Bacillus subtilis", "assay": "MIC, Bacillus subtilis (Bs), nutrient agar", "format": "cell-based, Bacillus subtilis ATCC 8473", "conditions": "30° C., 48 hours, read-out: Minimum Inhibitory Concentration, Bs", "procedure": "as §1, §2"}, "Salmonella choleraesuis": {"system": "Salmonella choleraesuis", "assay": "MIC, Salmonella choleraesuis (Sc), nutrient agar", "format": "cell-based, Salmonella choleraesuis ATCC 10708", "conditions": "Salmonella enterica, 30° C., 48 hours, read-out: Minimum Inhibitory Concentration, Sc", "procedure": "as §1, §2"}, "Enterobacter aerogenes": {"system": "Enterobacter aerogenes", "assay": "MIC, Enterobacter aerogenes (Ea), nutrient agar", "format": "cell-based, Enterobacter aerogenes ATCC 13048", "conditions": "Klebsiella aerogenes, 30° C., 48 hours, read-out: Minimum Inhibitory Concentration, Ea", "procedure": "as §1, §2"}, "Fusarium oxysporum": {"system": "Fusarium oxysporum", "assay": "MIC, Fusarium oxysporum (Fo), malt yeast agar", "format": "cell-based, Fusarium oxysporum ATCC 48112", "conditions": "30° C., 72 hours (fungi), read-out: Minimum Inhibitory Concentration, Fo", "procedure": "as §1, §3"}},
  "note": "Where two headings read alike, the source gives them in different places.",
  "data": [
    {"smiles": "N#CSC=C(Cl)C#N", "note": "[3-Thiocyano-2-chloro-2-propenenitrile, 3-Thiocyano-2-Chloro-2-Propenenitrile]", "values": [
      {"measurement": "MIC", "setting": "Klebsiella pneumoniae; pH 6.8, nutrient agar", "result": 100, "unit": "µg/mL"},
      {"measurement": "MIC", "setting": "Klebsiella pneumoniae; pH 8.2, nutrient agar", "result": 500, "unit": "µg/mL"},
      {"measurement": "MIC", "setting": "Aspergillus niger", "result": 2.5, "unit": "µg/mL"},
      {"measurement": "MIC", "setting": "Pseudomonas aeruginosa; pH 6.8, nutrient agar", "result": 250, "unit": "µg/mL"},
      {"measurement": "MIC", "setting": "Pseudomonas aeruginosa; pH 8.2, nutrient agar", "result": 500, "unit": "µg/mL"},
      {"measurement": "MIC", "setting": "Escherichia coli; pH 6.8, nutrient agar", "result": 100, "unit": "µg/mL"},
      {"measurement": "MIC", "setting": "Escherichia coli; pH 8.2, nutrient agar", "result": "> 500", "unit": "µg/mL"},
      {"measurement": "MIC", "setting": "Staphylococcus aureus; pH 6.8, nutrient agar", "result": 50, "unit": "µg/mL"},
      {"measurement": "MIC", "setting": "Staphylococcus aureus; pH 8.2, nutrient agar", "result": 500, "unit": "µg/mL"},
      {"measurement": "MIC", "setting": "[1]; pH 6.8, nutrient agar", "result": 250, "unit": "µg/mL"},
      {"measurement": "MIC", "setting": "[1]; pH 8.2, nutrient agar", "result": "> 500", "unit": "µg/mL"},
      {"measurement": "MIC", "setting": "Saccharomyces cerevisiae", "result": 2.5, "unit": "µg/mL"},
      {"measurement": "MIC", "setting": "Proteus vulgaris; pH 6.8, nutrient agar", "result": 50, "unit": "µg/mL"},
      {"measurement": "MIC", "setting": "Proteus vulgaris; pH 8.2, nutrient agar", "result": "> 500", "unit": "µg/mL"},
      {"measurement": "MIC", "setting": "Trichoderma viride", "result": 5, "unit": "µg/mL"},
      {"measurement": "MIC", "setting": "Penicillium chrysogenum", "result": 2.5, "unit": "µg/mL"},
      {"measurement": "MIC", "setting": "Aureobasidium pullulan", "result": 2.5, "unit": "µg/mL"},
      {"measurement": "MIC", "setting": "Candida albicans", "result": 2.5, "unit": "µg/mL"},
      {"measurement": "MIC", "setting": "Bacillus subtilis; pH 6.8, nutrient agar", "result": 25, "unit": "µg/mL"},
      {"measurement": "MIC", "setting": "Bacillus subtilis; pH 8.2, nutrient agar", "result": 500, "unit": "µg/mL"},
      {"measurement": "MIC", "setting": "Salmonella choleraesuis; pH 6.8, nutrient agar", "result": 100, "unit": "µg/mL"},
      {"measurement": "MIC", "setting": "Salmonella choleraesuis; pH 8.2, nutrient agar", "result": "> 500", "unit": "µg/mL"},
      {"measurement": "MIC", "setting": "Enterobacter aerogenes; pH 6.8, nutrient agar", "result": 250, "unit": "µg/mL"},
      {"measurement": "MIC", "setting": "Enterobacter aerogenes; pH 8.2, nutrient agar", "result": "> 500", "unit": "µg/mL"},
      {"measurement": "MIC", "setting": "Fusarium oxysporum", "result": 2.5, "unit": "µg/mL"}
    ]}
  ]
}
